These results are taken from patent publication EP0334146A1, “Morpholines and morpholine-N-oxides, medicines containing these compounds and process for their preparation” (Dr. Karl Thomae GmbH, priority 1988, dated 1989).

Each structure is given as a SMILES string.

This data set has as its system Mäusen. Description: Cardiac side effects: heart rate by ECG-triggered tachograph during the blood glucose test. In kind it is in vivo. Particulars: Dose 3,0 mg/kg oral; one hour after application; values in brackets = not significant (p > 0.05). The text has this: Das Auftreten von unerwünschten Nebenwirkungen auf das Herz konnte für die erfindungsgemäßen Verbindungen für den therapeutisch angestrebten stoffwechselaktiven Dosisbereich ausgeschlossen werden. Als Nachweis diente die Messung der Herzfrequenz an Mäusen während der Testung auf blutzuckersenkende Wirkung (s.o.). Eine Stunde nach der oralen Applikation der Verbindungen wurde die Herzfrequenz mittels EKG-getriggertem Tachographen bestimmt. Die nachfolgende Tabelle gibt die Änderung der Herzfrequenz in % der Kontrollgruppe wieder.

As for `CC(Cc1ccc(OCC(=O)O)cc1)N1CCOC(c2cccc(Cl)n2)C1` (stereo not shown) [Beispiel 4, N-[2-(4-Carboxymethoxyphenyl)-1-methylethyl]-2-(6-chlor-pyridin-2-yl)-morpholin], the “Änderung der Herzfrequenz, % Änderung vom Wert der Kontrollgruppe” value is “( 0 ) %”.
